Assay results published in ChEMBL document CHEMBL3301464, “MMV Malaria Box anti-babesial screening”.

Tests used:
[1] = (§1) MMV: Anti-babesial activity assay. Parasite pRBCs at 1% parasitemia were cultivated in 100 ul with 96-well plates at 2.5% and 5% hematocrits. The parasites were cultivated in triplicate for 4 days without replacement of the medium for each concentration of the compound.; type: functional, Babesia caballi
[2] = as §1; type: functional, Babesia equi
[3] = as §1; type: functional, Babesia bovis
[4] = as §1; type: functional, Babesia bigemina

SMILES | IC50 [1] | IC50 [2] | IC50 [3] | IC50 [4]
Oc1ccc(C(=C(Cl)Cl)c2ccc(O)cc2)cc1 | 21.1 µM | 13.8 µM | 15.9 µM | > 25 µM
O=C(NCc1ccco1)C1CCN(S(=O)(=O)c2ccc(Br)cc2)CC1 | > 25 µM | 14.3 µM | 17 µM | > 25 µM
CCC1(C)CC(CCNCc2ccccc2O)(c2ccc(C)cc2)CCO1 (configuration not stated) | 7.3 µM | 0.61 µM | 14.1 µM | 16.8 µM
CCOc1cc(Br)c(C(C)NC(=O)c2cccc(OC)c2)cc1OCC (configuration not stated) | 13.3 µM | 12.4 µM | 10 µM | 25 µM
Cc1cc(=O)oc2c1ccc1oc(C(=O)c3ccccc3)c(C)c12 | 5.69 µM | 12.1 µM | 10.1 µM | 11.9 µM
CCCCc1c(CCC)c(=N)c2ccccc2n1C | 1 µM | 15.2 µM | 0.087 µM | 0.059 µM
Cc1ccccc1OCCSc1nc2ccc(NC(=O)c3cccs3)cc2s1 | 5.51 µM | 22.3 µM | 7.81 µM | 5.09 µM
Cc1cc(N2CCN(C3CCCC3)CC2)n2c(nc3ccccc32)c1C#N | 0.38 µM | 0.065 µM | 0.75 µM | 0.1 µM
COc1ccc(C(=O)Nc2ccc3nc(N4CCCCC4)cc(C)c3c2)cc1OC | 0.51 µM | 6.99 µM | 14.3 µM | 0.46 µM
Cc1ccc2cc3c(N)c4c(C)ccc(C)c4nc3nc2c1 | 7.26 µM | 4.52 µM | 2.63 µM | 4.27 µM
Clc1ccc2[nH]c3c(NCCCN4CCOCC4)ncnc3c2c1 | 1 µM | 7.38 µM | 7.75 µM | 1.1 µM
CCOc1cc(Cl)c(C(C)NC(=O)c2cccc(OC)c2)cc1OCC (configuration not stated) | 18.7 µM | 2.45 µM | 25 µM | 7.3 µM
O=C(Nc1ccc(CN2CCOCC2)cc1)c1ccc(-c2ccc(Br)cc2)o1 | 5.64 µM | 6.8 µM | 7.67 µM | 11.5 µM
O=C(c1ccccc1F)N(Cc1ccc(Cl)cc1)c1ccccn1 | 6.06 µM | 18.2 µM | 16.5 µM | 4.19 µM
CCOc1ccc2c(c1)CN(Cc1ccc(Cl)cc1)CO2 | 10.7 µM | 7.54 µM | 0.26 µM | 13.3 µM
O=C(Nc1ccc(Br)cc1)Nc1cccc(Cl)c1 | > 25 µM | 9.12 µM | 7.66 µM | 12.8 µM
OC(CNC1CCCC1)Cn1c2ccccc2c2ccccc21 (configuration not stated) | 3.53 µM | 3.9 µM | 1 µM | 17.3 µM
C=CCc1c(C)nc2ccccc2c1O | 11.4 µM | 3.61 µM | 6.09 µM | 3.57 µM
Cc1ccc(CSCc2ccc(C(=O)NC3CC3)o2)cc1 | 12.9 µM | 4.48 µM | 8.31 µM | 15.2 µM
COc1ccc(C2N(C)c3ccccc3N2C)cc1 | 4.6 µM | 7.89 µM | 4.77 µM | 2.16 µM
CCOc1ccccc1CNC(=O)C1c2ccccc2C(=O)N(CC(C)C)C1c1cccs1 (configuration not stated) | 14.3 µM | 12.4 µM | 0.83 µM | 0.1 µM
CCOC(=O)c1cnc2c(C)cccc2c1Nc1ccc(C(C)=O)cc1 | 6.08 µM | 12.6 µM | 19.6 µM | > 25 µM
CC(C)(C)CC(C)(C)NCC(O)COc1ccc(Cl)cc1Cl (configuration not stated) | 0.071 µM | 0.53 µM | 0.083 µM | 0.32 µM
CN(C)c1ccc(N2C(N)=NC(N)=NC2(C)C)cc1 | 5.06 µM | 10.1 µM | 1 µM | 12.9 µM
O=C(Nc1ccc(Cl)c(Cl)c1)Nc1ccc(Cl)c(Cl)c1 | 4.91 µM | 0.21 µM | 0.59 µM | 2.95 µM
CC(=O)Nc1nnc(SCc2c(C)cc(C(C)(C)C)cc2C)s1 | 12.8 µM | 15.8 µM | > 25 µM | 11.4 µM
COc1cccc(C(=O)Nc2ccc(-c3nc4ccccc4[nH]3)cc2)c1 | 4.89 µM | 7.38 µM | 1 µM | 4.77 µM

SMILES | IC50 [1] | IC50 [2] | IC50 [3] | IC50 [4]
O=C(NC1CCN(Cc2ccccc2)CC1)c1cc2nc(-c3ccc(Cl)s3)cc(C(F)(F)F)n2n1 | 4.13 µM | 13.9 µM | 1.42 µM | 0.065 µM
CCCCc1c(C)nc2c(OC)cccc2c1O | 5.64 µM | 14 µM | 10 µM | 15.3 µM
COc1ccc(N2CCN(C(CNC(=O)CC(C)(C)C)c3ccc4c(c3)OCO4)CC2)cc1 (configuration not stated) | 16.1 µM | 0.51 µM | 0.79 µM | 0.1 µM
Cc1cc(NC(=O)c2cccc(C(F)(F)F)c2)n(-c2nc(-c3ccc4c(c3)OCO4)cs2)n1 | 0.08 µM | 12.3 µM | 18 µM | 8.83 µM
CCOc1cccc(C(=O)Nc2ccc(-c3nc4ccccc4[nH]3)cc2)c1 | 0.075 µM | 10 µM | 17.2 µM | 5.64 µM
COc1cccc(NC(=O)Cn2c(C)c(C#N)c3ccccc32)c1 | 10.1 µM | 7.3 µM | 9.04 µM | 14.8 µM
O=C(Cc1ccccc1)NC(c1ccc(Cl)cc1)c1c(O)ccc2ccccc12 (configuration not stated) | 10 µM | 12.7 µM | 1 µM | 13.1 µM
CCOc1ccc(CCNC(=O)c2cccs2)cc1OCC | 15.3 µM | 13.9 µM | 25 µM | > 25 µM
Oc1ccc(-c2nc(-c3ccc4oc5ccc(-c6[nH]c(-c7ccc(O)cc7)nc6-c6ccccc6)cc5c4c3)c(-c3ccccc3)[nH]2)cc1 | 10 µM | 0.1 µM | 0.059 µM | 1.39 µM
Cn1c(=O)n(C)c2cc(CNCCNc3ccnc4cc(Cl)ccc34)ccc21 | 0.489 µM | 0.1 µM | 0.071 µM | 0.081 µM
O=C(Nc1ccccc1O)c1ccc(-c2ccc(Cl)cc2Cl)o1 | 6.51 µM | 12.5 µM | 4.65 µM | 19 µM
OCCNc1nc(Nc2ccc(Cl)c(Cl)c2)nc2ccccc12 | 0.1 µM | 1.39 µM | 0.52 µM | 3.34 µM
COCCN(C(=O)Cc1cccs1)C(C(=O)NCc1ccc(OC)cc1)c1ccc(C(C)C)cc1 (configuration not stated) | 17.2 µM | 5.79 µM | 25 µM | 13.2 µM
COc1ccc2sc(N(Cc3cccnc3)C(=O)c3ccc(C#N)cc3)nc2c1 | 6.72 µM | 14.6 µM | 13.7 µM | 11.9 µM
Cc1cc(NC(=O)C2c3ccccc3C(=O)N(CC(C)C)C2c2cccs2)no1 (configuration not stated) | 13 µM | 3 µM | 12.6 µM | 2.57 µM
COCCNC(=O)c1ccc(OC2CCN(Cc3ccc(F)c(F)c3)CC2)c(Cl)c1 | 1 µM | 17.2 µM | 0.27 µM | 0.98 µM
Cc1cc(C)c2nc(N3CCC(C(=O)NCCCN4CCC(N5CCCCC5)CC4)CC3)sc2c1 | 4.77 µM | 0.64 µM | 2.74 µM | 3.91 µM
CCOc1c(Cl)cc(CNC(C)C(O)c2ccccc2)cc1OC (configuration not stated) | 12 µM | 6.69 µM | 1.89 µM | 7.31 µM
COc1cccc(O)c1CN1CCC2(CCCN(Cc3ccc(F)cc3)C2)C1 (configuration not stated) | 3.09 µM | 4.6 µM | 2.45 µM | 10 µM
O=C(Nc1ccc(N2CCCCC2)c(Cl)c1)c1ccc(Br)o1 | 13.9 µM | 18.7 µM | 11.9 µM | 17.7 µM
CCC(O)c1ccc(Br)cc1NC(=O)c1cccc(Cl)c1 (configuration not stated) | 11.4 µM | > 25 µM | > 25 µM | 7.38 µM
CN1c2ccccc2N(C)C1c1ccc2c(c1)OCO2 | 0.36 µM | 10.1 µM | 4.93 µM | 0.1 µM
O=C(NC1CCN(Cc2ccccc2)CC1)c1cc(C(=O)NC2CCN(Cc3ccccc3)CC2)cc(C(=O)NC2CCN(Cc3ccccc3)CC2)c1 | 5.3 µM | 15.2 µM | 0.06 µM | 0.077 µM
CCOc1cc2c(cc1OCC)C(c1cc(Cl)ccc1O)NCC2 (configuration not stated) | 0.33 µM | 1.4 µM | 1.06 µM | 10 µM
CCOc1ccccc1CN1CCc2nc3cc(C(C)(C)C)nn3c(O)c2C1 | 0.068 µM | 10.1 µM | 20.2 µM | 9.87 µM
c1ccc(-c2ccc(-c3nc4ccccc4[nH]3)cc2)cc1 | 14.8 µM | 10 µM | 25 µM | 10 µM
